Data as given in US20090227575A1, “7H-PYRROLO[2,3-H]QUINAZOLINE COMPOUNDS, THEIR USE AS mTOR KINASE AND PI3 KINASE INHIBITORS, AND THEIR [sequence]” (Wyeth, priority 2008, published 2009).
Read-outs that look alike come from different tables or passages of the source.

Assays:
Human mTOR [1] = target: T1, Human mTOR (Homo sapiens, UniProt P42345); test: mTOR kinase assay (DELFIA format, purified enzyme); type: biochemical; design: FLAG; conditions: read-out: TOR Kinase IC50
human SMG-1 (hSMG-1) = human SMG-1 (hSMG-1) (Homo sapiens, UniProt Q96Q15); test: hSMG-1 kinase assay (DELFIA); type: biochemical; conditions: read-out: hSMG1 IC50
PI3K-alpha = PI3K-alpha (Homo sapiens, UniProt P42336); test: PI3K-alpha fluorescence polarization assay; type: biochemical; conditions: read-out: PI3 Kinase α IC50
Summary of the method: (§1)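 Diluted enzyme and compound (1% DMSO) reacted with diC8 PIP2 and ATP substrate in 20 mM HEPES pH 7.5, 2 mM MgCl2, 0.05% CHAPS for 30–60 min. Stopped with EDTA buffer holding 10 nM TAMRA probe and 70 nM GST-GRP. FP (mP) read after 30–90 min against zero-time and no-enzyme controls.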

PI3K-gamma = PI3K-gamma (Homo sapiens, UniProt P48736); test: PI3K-gamma fluorescence polarization assay; type: biochemical; conditions: read-out: PI3 Kinase γ IC50
Summary of the method: as §1

[2] = system: acute lymphoblastic leukemia xenograft; conditions: NOS/SCID xenograft mouse model of acute lymphoblastic leukemia; cited from earlier work
[3] = system: human prostate LNCap tumor cell line; test: In vitro cell culture growth assay (MTS), LNCap; type: cell-based; conditions: 72 h, three days after drug treatment
Method: (§2) Cell Lines used are human prostate LNCap and human breast MDA468 tumor cell lines. Cells are plated in 96-well culture plates at approximately 3000 cells per well. […] Three days after drug treatment, viable cell densities are determined by cell mediated metabolic conversion of the dye MTS, a well-established indicator of cell proliferation in vitro. Cell growth assays are performed using kits purchased from Promega Corporation (Madison, Wis.), following the protocol provided by the vendor. Measuring absorbance at 490 nm generates MTS assay results. Compound effect on cell proliferation is assessed relative to untreated control cell growth.

[4] = system: human breast MDA468 tumor cell line; test: In vitro cell culture growth assay (MTS), MDA468; type: cell-based; conditions: 72 h, three days after drug treatment
Method: as §2

hSMG-1 = hSMG-1 (Homo sapiens, UniProt Q96Q15); conditions: read-out: hSMG-1 kinase activity IC50; cited from earlier work
Human mTOR [5] = target: T1, Human mTOR; conditions: read-out: mTOR enzymes IC50; cited from earlier work
[6] = system: human tumor xenograft models; conditions: cited from earlier work

Sequence of PI3K-alpha (P42336 whole entry, species assumed): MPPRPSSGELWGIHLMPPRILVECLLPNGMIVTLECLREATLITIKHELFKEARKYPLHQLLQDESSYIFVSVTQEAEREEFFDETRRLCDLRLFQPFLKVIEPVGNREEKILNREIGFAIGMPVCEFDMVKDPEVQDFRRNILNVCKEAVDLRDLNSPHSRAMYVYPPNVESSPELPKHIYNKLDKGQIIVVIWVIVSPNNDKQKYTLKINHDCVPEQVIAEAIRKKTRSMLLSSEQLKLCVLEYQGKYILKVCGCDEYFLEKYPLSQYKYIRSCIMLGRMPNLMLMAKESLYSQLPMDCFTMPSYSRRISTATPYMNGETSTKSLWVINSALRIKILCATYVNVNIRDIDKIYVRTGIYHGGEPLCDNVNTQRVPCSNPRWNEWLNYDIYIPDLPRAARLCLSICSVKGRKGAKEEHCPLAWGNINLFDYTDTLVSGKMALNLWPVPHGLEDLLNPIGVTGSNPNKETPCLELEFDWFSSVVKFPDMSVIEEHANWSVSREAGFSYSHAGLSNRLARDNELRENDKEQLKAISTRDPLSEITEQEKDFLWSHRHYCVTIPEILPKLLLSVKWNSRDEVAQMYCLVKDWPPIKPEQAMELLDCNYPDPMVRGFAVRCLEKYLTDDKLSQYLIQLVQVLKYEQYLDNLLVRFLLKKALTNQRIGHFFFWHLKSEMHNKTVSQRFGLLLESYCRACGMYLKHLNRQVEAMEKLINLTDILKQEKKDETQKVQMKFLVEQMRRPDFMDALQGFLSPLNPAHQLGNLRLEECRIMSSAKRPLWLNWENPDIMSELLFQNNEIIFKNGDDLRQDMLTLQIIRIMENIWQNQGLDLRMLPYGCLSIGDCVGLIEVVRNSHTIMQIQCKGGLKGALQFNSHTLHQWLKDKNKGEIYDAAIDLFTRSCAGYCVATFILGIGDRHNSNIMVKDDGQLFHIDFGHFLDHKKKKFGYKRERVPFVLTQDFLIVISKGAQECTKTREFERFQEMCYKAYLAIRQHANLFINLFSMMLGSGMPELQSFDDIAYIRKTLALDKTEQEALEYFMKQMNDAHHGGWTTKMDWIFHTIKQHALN
Sequence of PI3K-alpha (P27986 whole entry partner, species assumed): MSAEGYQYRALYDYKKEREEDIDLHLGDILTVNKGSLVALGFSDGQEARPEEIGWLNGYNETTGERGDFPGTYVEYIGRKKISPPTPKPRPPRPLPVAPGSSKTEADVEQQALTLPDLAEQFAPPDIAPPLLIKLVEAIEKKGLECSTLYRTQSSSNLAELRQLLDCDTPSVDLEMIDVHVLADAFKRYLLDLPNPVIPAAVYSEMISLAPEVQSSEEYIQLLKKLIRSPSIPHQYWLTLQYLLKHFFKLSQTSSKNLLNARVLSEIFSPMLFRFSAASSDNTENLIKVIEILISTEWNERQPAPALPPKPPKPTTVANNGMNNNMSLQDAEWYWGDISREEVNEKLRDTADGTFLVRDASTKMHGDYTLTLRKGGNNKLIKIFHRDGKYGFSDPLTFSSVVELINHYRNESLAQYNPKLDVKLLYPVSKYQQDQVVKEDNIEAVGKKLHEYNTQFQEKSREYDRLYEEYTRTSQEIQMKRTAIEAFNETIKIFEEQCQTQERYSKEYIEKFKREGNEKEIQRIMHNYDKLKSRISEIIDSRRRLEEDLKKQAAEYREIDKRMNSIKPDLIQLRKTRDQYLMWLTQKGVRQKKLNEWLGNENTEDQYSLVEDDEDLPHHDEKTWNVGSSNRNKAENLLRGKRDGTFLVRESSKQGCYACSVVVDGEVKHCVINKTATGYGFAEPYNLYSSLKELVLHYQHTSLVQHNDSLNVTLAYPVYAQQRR
Sequence of PI3K-gamma (P48736 whole entry, species assumed): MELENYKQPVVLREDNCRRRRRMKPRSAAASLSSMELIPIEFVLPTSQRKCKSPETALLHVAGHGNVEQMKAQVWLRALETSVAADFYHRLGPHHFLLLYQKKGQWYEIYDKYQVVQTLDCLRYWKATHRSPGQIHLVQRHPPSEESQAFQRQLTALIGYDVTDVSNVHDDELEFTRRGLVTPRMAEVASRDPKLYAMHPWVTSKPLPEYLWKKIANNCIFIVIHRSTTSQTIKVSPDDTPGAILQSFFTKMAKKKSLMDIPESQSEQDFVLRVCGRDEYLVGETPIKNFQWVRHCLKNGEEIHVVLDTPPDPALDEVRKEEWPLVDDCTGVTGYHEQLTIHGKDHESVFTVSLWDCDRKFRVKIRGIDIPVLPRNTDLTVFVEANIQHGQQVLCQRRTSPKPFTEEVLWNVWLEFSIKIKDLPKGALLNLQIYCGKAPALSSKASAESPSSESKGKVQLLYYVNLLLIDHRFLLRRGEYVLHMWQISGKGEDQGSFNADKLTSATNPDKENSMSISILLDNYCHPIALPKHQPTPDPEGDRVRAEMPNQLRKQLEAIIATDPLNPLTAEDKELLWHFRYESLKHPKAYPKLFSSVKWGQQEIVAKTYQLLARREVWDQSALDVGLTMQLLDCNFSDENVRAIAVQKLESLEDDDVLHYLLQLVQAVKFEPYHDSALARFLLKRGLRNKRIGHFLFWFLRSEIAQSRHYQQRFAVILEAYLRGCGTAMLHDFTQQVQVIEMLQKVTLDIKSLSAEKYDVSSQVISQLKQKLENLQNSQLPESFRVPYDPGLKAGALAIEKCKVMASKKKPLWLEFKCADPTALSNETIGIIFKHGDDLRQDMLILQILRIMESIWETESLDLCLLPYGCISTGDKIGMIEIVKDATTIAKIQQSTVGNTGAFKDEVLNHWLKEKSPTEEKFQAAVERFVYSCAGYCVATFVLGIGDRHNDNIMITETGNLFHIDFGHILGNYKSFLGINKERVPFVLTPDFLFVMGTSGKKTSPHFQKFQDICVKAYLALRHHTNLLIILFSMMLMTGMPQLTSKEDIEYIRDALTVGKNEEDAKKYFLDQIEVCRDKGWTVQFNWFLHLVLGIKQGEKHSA

Compound | IC50 (Human mTOR [1]) | IC50 (human SMG-1 (hSMG-1)) | also measured
CN(C)CCn1ccc2c3nc(-c4ccc(NC(=O)Nc5cccnc5)cc4)nc(N4CCOCC4)c3ccc21 [Example 111, 1-(4-{7-[2-(dimethylamino)ethyl]-4-morpholin-4-yl-7H-pyrrolo[2,3-h]quinazolin-2-yl}phenyl)-3-pyridin-3-ylurea] | 15 nM | 290 nM | IC50 (PI3K-alpha): 118 nM; IC50 (PI3K-gamma): 860 nM
CO[C@H]1C[C@@H]2CC[C@@H](C)[C@@](O)(O2)C(=O)C(=O)N2CCCC[C@H]2C(=O)O[C@H]([C@H](C)C[C@@H]2CC[C@@H](OC(=O)C(C)(CO)CO)[C@H](OC)C2)CC(=O)[C@H](C)/C=C(\C)[C@@H](O)[C@@H](OC)C(=O)[C@H](C)C[C@H](C)/C=C/C=C/C=C/1C [Torisel] |  |  | activity in xenograft mouse model [2]: active
CNC(=O)Nc1ccc(-c2nc(N3CCOCC3)c3ccc4c(ccn4CCN(C)C)c3n2)cc1 [Example 113, 1-(4-{7-[2-(dimethylamino)ethyl]-4-morpholin-4-yl-7H-pyrrolo[2,3-h]quinazolin-2-yl}phenyl)-3-methylurea] | 67 nM | 490 nM | IC50 (PI3K-alpha): 427 nM; IC50 (PI3K-gamma): 3090 nM
CCCNC(=O)Nc1ccc(-c2nc(N3CCOCC3)c3ccc4c(ccn4S(C)(=O)=O)c3n2)cc1 [Example 121, 1-{4-[7-(methylsulfonyl)-4-morpholin-4-yl-7H-pyrrolo[2,3-h]quinazolin-2-yl]phenyl}-3-propylurea] | 26 nM | 140 nM | IC50 [3]: 2000 nM; IC50 [4]: 30000 nM
COC[C@H]1OC(=O)c2coc3c2[C@@]1(C)C1=C(C3=O)[C@@H]2CCC(=O)[C@@]2(C)C[C@H]1OC(C)=O [Wortmannin] |  |  | IC50 (hSMG-1): ~60 nM
FC(F)c1nc2ccccc2n1-c1nc(N2CCOCC2)nc(N2CCOCC2)n1 [ZSTK474, 2-(2-difluoromethylbenzoimidazol-1-yl)-4,6-dimorpholino-1,3,5-triazine] |  |  | IC50 (Human mTOR [5]): > 10000 nM; tumor growth inhibition ([6]; chronic oral administration, 400 mg/kg, A549, PC-3, WiDr): completely inhibited growth
Oc1cccc(-c2nc(N3CCOCC3)c3oc4ncccc4c3n2)c1 [PI103, 3-(4-(4-morpholinyl)pyrido[3′,2′:4,5]furo[3,2-d]pyrimidin-2-yl)phenol] |  |  | activity against human tumor models ([6]; I.P. dosing in mice, U87MG, PC3, MDA-MB-468, MDA-MB-435, HCT 116, SKOV3, IGROV-1): demonstrated activity
CCNC(=O)Nc1cccc(-c2nc(N3CCOCC3)c3ccc4c(ccn4C)c3n2)c1 [Example 128, 1-ethyl-3-[3-(7-methyl-4-morpholin-4-yl-7H-pyrrolo[2,3-h]quinazolin-2-yl)phenyl]urea] | 1800 nM | > 20000 nM | 
Cn1ccc2c3nc(-c4ccc(NC(=O)NCCCN5CCCC5)cc4)nc(N4CCOCC4)c3ccc21 [Example 104] | 2400 nM | > 20000 nM | 
CNC(=O)Nc1ccc(-c2nc(N3CCOCC3)c3ccc4c(ccn4S(C)(=O)=O)c3n2)cc1 [Example 110, 1-methyl-3-{4-[7-(methylsulfonyl)-4-morpholin-4-yl-7H-pyrrolo[2,3-h]quinazolin-2-yl]phenyl}urea] | 2 nM | 43 nM | IC50 [3]: 880 nM; IC50 (PI3K-alpha): 95 nM; IC50 [4]: 1700 nM; IC50 (PI3K-gamma): 1910 nM
CCCNC(=O)Nc1cccc(-c2nc(N3CCOCC3)c3ccc4c(ccn4C)c3n2)c1 [Example 127, 1-[3-(7-methyl-4-morpholin-4-yl-7H-pyrrolo[2,3-h]quinazolin-2-yl)phenyl]-3-propylurea] | 1500 nM | 15500 nM | 
CCCC(=O)Nc1cccc(-c2nc(N3CCOCC3)c3ccc4c(ccn4C)c3n2)c1 [Example 126, N-[3-(7-methyl-4-morpholin-4-yl-7H-pyrrolo[2,3-h]quinazolin-2-yl)phenyl]butanamide] | 1900 nM | > 20000 nM | 
Cn1ccc2c3nc(-c4cccc(NC(=O)Nc5cccnc5)c4)nc(N4CCOCC4)c3ccc21 [Example 123, 1-[3-(7-methyl-4-morpholin-4-yl-7H-pyrrolo[2,3-h]quinazolin-2-yl)phenyl]-3-pyridin-3-ylurea] | 2550 nM | 5500 nM | 
Cn1c(=O)n(-c2ccc(C(C)(C)C#N)cc2)c2c3cc(-c4cnc5ccccc5c4)ccc3ncc21 [NVP-BEZ-235, 2-methyl-2-(4-(3-methyl-2-oxo-8-(quinolin-3-yl)-2,3-dihydro-1H-imidazo[4,5-c]quinolin-1-yl)phenyl)propanenitrile] |  |  | activity against human tumor models ([6]; prostrate (PC-3) and glioblastoma (U-87)): demonstrated activity
CCCC(=O)Nc1ccc(-c2nc(N3CCOCC3)c3ccc4c(ccn4CCN(C)C)c3n2)cc1 [Example 97, N-(4-{7-[2-(dimethylamino)ethyl]-4-morpholin-4-yl-7H-pyrrolo[2,3-h]quinazolin-2-yl}phenyl)butanamide] | 6200 nM | > 20000 nM | 
Cn1ccc2c3nc(-c4cccc(NC(=O)C5CC5)c4)nc(N4CCOCC4)c3ccc21 [Example 125, N-[3-(7-methyl-4-morpholin-4-yl-7H-pyrrolo[2,3-h]quinazolin-2-yl)phenyl]cyclopropanecarboxamide] | 1300 nM | > 20000 nM | 
CCNC(=O)Nc1ccc(-c2nc(N3CCOCC3)c3ccc4c(ccn4S(C)(=O)=O)c3n2)cc1 [Example 89, 1-ethyl-3-{4-[7-(methylsulfonyl)-4-morpholin-4-yl-7H-pyrrolo[2,3-h]quinazolin-2-yl]phenyl}urea] |  | 200 nM | IC50 [3]: 690 nM; IC50 [4]: 1900 nM
Cn1c(=O)c2c(ncn2C)n(C)c1=O [caffeine] |  |  | IC50 (hSMG-1): 300000 nM
CS(=O)(=O)n1ccc2c3nc(-c4ccc(NC(=O)Nc5cccnc5)cc4)nc(N4CCOCC4)c3ccc21 [Example 85, 1-{4-[7-(methylsulfonyl)-4-morpholin-4-yl-7H-pyrrolo[2,3-h]quinazolin-2-yl]phenyl}-3-pyridin-3-ylurea] |  | 160 nM | IC50 [3]: 48 nM; IC50 (PI3K-alpha): 22 nM; IC50 [4]: 70 nM; IC50 (PI3K-gamma): 142 nM
Cn1ccc2c3nc(-c4ccc(NC(=O)NCC5CC5)cc4)nc(N4CCOCC4)c3ccc21 [Example 100, 1-(cyclopropylmethyl)-3-[4-(7-methyl-4-morpholin-4-yl-7H-pyrrolo[2,3-h]quinazolin-2-yl)phenyl]urea] | 500 nM | 16000 nM | 
Cn1ccc2c3nc(-c4ccc(NC(=O)NC5CCCCC5)cc4)nc(N4CCOCC4)c3ccc21 [Example 108, 1-cyclohexyl-3-[4-(7-methyl-4-morpholin-4-yl-7H-pyrrolo[2,3-h]quinazolin-2-yl)phenyl]urea] | 7250 nM | > 20000 nM | 
